Measurements taken from patent US20230131943A1, “ANTI-INFECTIVE AND ANTI-VIRAL COMPOUNDS AND COMPOSITIONS” (priority 2020, published 2023).

How the values were obtained:
[1] = tested on: Staphylococcus aureus Newman; assay: Infection of mice by Staphylococcus aureus Newman (body weight, CFU from kidney); assay type: in vivo; conditions: FIG. 6; mice infected with Staphylococcus aureus Newman
[2] = tested on: SARS-CoV-2; assay: SARS-CoV-2 virus production in infected CaCo2 cells (fluorescence or luminescence normalized to Hoechst); conditions: for Fluorescence ratio: added substances at the fixed concentration indicated, CaCo2 cells, untreated = 0.2; for SARS-CoV-2 viral protein production in CaCo2 cells - effect of each substance at 10 μM (% of untreated): 10 μM in medium, low values indicate inhibition of viral protein production
[3] = tested on: Salmonella typhimurium; assay: Inhibition of growth of Salmonella typhimurium (optical density of culture); assay type: cell-based; conditions: after 9-20 h, no compound 0.943
Description: (§1) Activity of substances in the inhibition of growth of bacteria. Bacteria including the species Escherichia coli, Bacillus pumilus, Salmonella sp., Micrococcus luteus and Staphylococcus carnosus are cultured in appropriate media (Luria broth for all except S. canosus). Overnight cultures are mixed with fresh medium to reach an optical density at […] of ca. 0.1 AU. These cultures are mixed with solutions of substances to be tested at concentrations ranging from 100 μM to 0.05 μM in a microtitre plate. The growth of the culture is monitored by measuring the optical density at various times after the addition of the inhibitor. Reduction in the rate of increase in optical density corresponds to an inhibition of bacterial growth. In the following tables, the activity of various of the test substances may be observed by reductions in optical density relative to untreated control cultures.

[4] = tested on: Staphylococcus carnosus; assay: Inhibition of growth of Staphylococcus carnosus (optical density of culture); assay type: cell-based; conditions: after 9-20 h, no compound 0.887
Description: as §1

[5] = Dextran sulfate colitis model of inflammatory bowel disease in mice; assay type: in vivo, mouse; conditions: FIG. 18; all doses 1.34 μmol/kg; N=8
From the text: The potential efficacy of a Compound for Inflammatory bowel disease may be modeled as follows. C57 BLK6 or BALBc mice are provided with drinking water containing 2.5% or 2.8% dextran sulfate. Animals are weighed and observed for signs of intestinal disturbance daily. Signs include diarrhea or occult blood. Compound is formulated by mixing with a solution of 0.1 up to 1% citric acid depending on concentration. Compound is provided by oral gavage daily.

CC[C@H]1OC(=O)[C@H](C)[C@@H](O[C@H]2C[C@@](C)(OC)[C@@H](O)[C@H](C)O2)[C@H](C)[C@@H](O[C@@H]2O[C@H](C)C[C@H](N(C)C)[C@H]2O)[C@](C)(O)C[C@@H](C)CN(C)[C@H](C)[C@@H](O)[C@]1(C)O [Azithromycin, reference compound]
Bacteria quantified as CFU recovered from a standard sample of kidney [1]: decreases recovered bacteria in a dose responsive manner

CN(C)C(=O)COC(=O)Cc1ccc(OC(=O)c2ccc(NC(=N)N)cc2)cc1 [Camostat, reference compound]
Fluorescence ratio ([2]; 0.312 μM of the (first named) compound): 0.09 | Fluorescence ratio ([2]; 0.625 μM of the (first named) compound): 0.08 | Fluorescence ratio ([2]; 1.25 μM of the (first named) compound): 0.01 | Fluorescence ratio ([2]; 2.5 μM of the (first named) compound): 0.03 | Fluorescence ratio ([2]; 5 μM of the (first named) compound): 0.07 | SARS-CoV-2 viral protein production in CaCo2 cells - effect of each substance at 10 μM (% of untreated) [2]: 2 % of untreated | Fluorescence ratio ([2]; 10 μM of the (first named) compound): 0.02

CC[C@H]1OC(=O)[C@H](C)[C@@H](O[C@@H]2O[C@@H](C)[C@@H](OC(C)=O)[C@@H](OC(C)=O)[C@@H]2OC(C)=O)[C@H](C)[C@@H](O[C@@H]2O[C@H](C)C[C@H](N(C)C)[C@H]2O)[C@](C)(O)C[C@@H](C)CN(C)[C@H](C)[C@@H](O)[C@]1(C)O [Compound A-23, 3-descladinosyl-3-triacetylfucosylazithromycin]
SARS-CoV-2 viral protein production in CaCo2 cells - effect of each substance at 10 μM (% of untreated) [2]: 44 % of untreated

CCCN(CCO)CC(O)CN(C)[C@H]1C[C@@H](C)O[C@@H](O[C@@H]2[C@@H](C)[C@H](O[C@H]3C[C@@](C)(OC)[C@@H](O)[C@H](C)O3)[C@@H](C)C(=O)O[C@H](CC)[C@@](C)(O)[C@H](O)[C@@H](C)N(C)C[C@H](C)C[C@@]2(C)O)[C@@H]1O (stereo partly drawn) [Compound A-24, (2R,3S,4R,5R,8R,10R,11R,12S,13S, 14R)-2-ethyl-3,4,10-trihydroxy-11-(((2S,3R,4R,6R)-3-hydroxy-4-((2-hydroxy-3-((2-hydroxyethyl)(propyl)amino)propyl) (methyl)amino)-6-methyltetrahydro-2H-pyran-2-yl)oxy)-13-(((2R,4R,58,6S)-5-hydroxy-4-methoxy-4,6-dimethyltetrahydro-2H-pyran-2-yl)oxy)-3,5,6,8,10,12,14-heptamethyl-1-oxa-6-azacyclopentadecan-15-one]
SARS-CoV-2 viral protein production in CaCo2 cells - effect of each substance at 10 μM (% of untreated) [2]: 35 % of untreated

CC[C@H]1OC(=O)[C@H](C)[C@@H](O)[C@H](C)[C@@H](O[C@@H]2O[C@H](C)C[C@H](NC)[C@H]2O)[C@](C)(O)C[C@@H](C)CN(C)[C@H](C)[C@@H](O)[C@]1(C)O [Compound A-25, (2R,3S,4R,5R,8R,10R,11R,12S,13S, 14R)-2-ethyl-3,4,10,13-tetrahydroxy-11-(((2S,3R,4S,6R)-3-hydroxy-6-methyl-4-(methylamino)tetrahydro-2H-pyran-2-yl)oxy)-3,5,6,8,10,12,14-heptamethyl-1-oxa-6-azacyclopentadecan-15-one]
SARS-CoV-2 viral protein production in CaCo2 cells - effect of each substance at 10 μM (% of untreated) [2]: 34 % of untreated

CC[C@H]1OC(=O)[C@H](C)[C@@H](O[C@H]2C[C@@](C)(OC)[C@@H](O[N+](=O)[O-])[C@H](C)O2)[C@H](C)[C@@H](O[C@@H]2O[C@H](C)C[C@H](N(C)C)[C@H]2O)[C@](C)(O)C[C@@H](C)CN(C)[C@H](C)[C@@H](O)[C@]1(C)O [Compound E-1, (2S,3S,4R,6R)-6-(((2R,3S,4R,5R,8R,10R,11R,12S,13S, 14R)-11-(((2S,3R,4S,6R)-4-(dimethylamino)-3-hydroxy-6-methyltetrahydro-2H-pyran-2-yl)oxy)-2-ethyl-3,4,10-trihydroxy-3,5,6,8,10,12,14-heptamethyl-15-oxo-1-oxa-6-azacyclopentadecan-13-yl)oxy)-4-methoxy-2,4-dimethyltetrahydro-2H-pyran-3-yl nitrate]
Absorbance of culture medium at 600 nm ([3]; 0.8 μM): 0.722 | Absorbance of culture medium at 600 nm ([3]; 2 μM): 0.761 | Absorbance of culture medium at 600 nm ([3]; 3 μM): 0.711 | Absorbance of culture medium at 600 nm ([3]; 6 μM): 0.741 | Absorbance of culture medium at 600 nm ([3]; 13 μM): 0.722 | Absorbance of culture medium at 600 nm ([3]; 25 μM): 0.736 | Absorbance of culture medium at 600 nm ([3]; 50 μM): 0.484 | Absorbance of culture medium at 600 nm ([3]; 100 μM): 0.557 | Absorbance of culture medium at 600 nm ([4]; 0.8 μM): 0.902 | Absorbance of culture medium at 600 nm ([4]; 2 μM): 0.856 | Absorbance of culture medium at 600 nm ([4]; 3 μM): 0.864 | Absorbance of culture medium at 600 nm ([4]; 6 μM): 0.625 | Absorbance of culture medium at 600 nm ([4]; 13 μM): 0.068 | Absorbance of culture medium at 600 nm ([4]; 25 μM): 0.078 | Absorbance of culture medium at 600 nm ([4]; 50 μM): 0.096 | Absorbance of culture medium at 600 nm ([4]; 100 μM): 0.157

CCCCCCCCCCN(C)C1C[C@@H](C)O[C@@H](O[C@@H]2[C@@H](C)[C@H](O[C@H]3C[C@@](C)(OC)[C@@H](O[N+](=O)[O-])[C@H](C)O3)[C@@H](C)C(=O)O[C@H](CC)[C@@](C)(O)[C@H](O)[C@@H](C)N(C)C[C@H](C)C[C@@]2(C)O)[C@@H]1O (stereo partly drawn) [Compound E-3]
Body weight and clinical score of BALBc mice at day 9 after commencing 2.5% DSS in water [5]: stimulate inflammation

CC[C@H]1OC(=O)[C@H](C)[C@@H](O[C@H]2C[C@@](C)(OC)[C@@H](O)[C@H](C)O2)[C@H](C)[C@@H](O[C@@H]2O[C@H](C)CC(N(C)C)[C@H]2O)[C@](C)(O)C[C@@H](C)CN(C)[C@H](C)[C@@H](O[N+](=O)[O-])[C@]1(C)O (stereo partly drawn) [Compound E-10]
Absorbance of culture medium at 600 nm ([3]; 0.8 μM): 0.334 | Absorbance of culture medium at 600 nm ([3]; 2 μM): 0.361 | Absorbance of culture medium at 600 nm ([3]; 3 μM): 0.402 | Absorbance of culture medium at 600 nm ([3]; 6 μM): 0.382 | Absorbance of culture medium at 600 nm ([3]; 13 μM): 0.399 | Absorbance of culture medium at 600 nm ([3]; 25 μM): 0.390 | Absorbance of culture medium at 600 nm ([3]; 50 μM): 0.315 | Absorbance of culture medium at 600 nm ([3]; 100 μM): 0.280 | Absorbance of culture medium at 600 nm ([4]; 0.8 μM): 0.862 | Absorbance of culture medium at 600 nm ([4]; 2 μM): 0.826 | Absorbance of culture medium at 600 nm ([4]; 3 μM): 0.768 | Absorbance of culture medium at 600 nm ([4]; 6 μM): 0.699 | Absorbance of culture medium at 600 nm ([4]; 13 μM): 0.702 | Absorbance of culture medium at 600 nm ([4]; 25 μM): 0.595 | Absorbance of culture medium at 600 nm ([4]; 50 μM): 0.433 | Absorbance of culture medium at 600 nm ([4]; 100 μM): 0.576

CC[C@H]1OC(=O)[C@H](C)[C@@H](O[C@H]2C[C@@](C)(OC)[C@@H](O)[C@H](C)O2)[C@H](C)[C@@H](O[C@@H]2O[C@H](C)CC(N(C)C)[C@H]2O[N+](=O)[O-])[C@](C)(O)C[C@@H](C)CN(C)[C@H](C)[C@@H](OC)[C@]1(C)O (stereo partly drawn) [Compound E-11]
Absorbance of culture medium at 600 nm ([3]; 0.8 μM): 0.555 | Absorbance of culture medium at 600 nm ([3]; 2 μM): 0.587 | Absorbance of culture medium at 600 nm ([3]; 3 μM): 0.623 | Absorbance of culture medium at 600 nm ([3]; 6 μM): 0.627 | Absorbance of culture medium at 600 nm ([3]; 13 μM): 0.633 | Absorbance of culture medium at 600 nm ([3]; 25 μM): 0.697 | Absorbance of culture medium at 600 nm ([3]; 50 μM): 0.650 | Absorbance of culture medium at 600 nm ([3]; 100 μM): 0.562 | SARS-CoV-2 viral protein production in CaCo2 cells - effect of each substance at 10 μM (% of untreated) [2]: 32 % of untreated | Absorbance of culture medium at 600 nm ([4]; 0.8 μM): 0.941 | Absorbance of culture medium at 600 nm ([4]; 2 μM): 0.918 | Absorbance of culture medium at 600 nm ([4]; 3 μM): 0.890 | Absorbance of culture medium at 600 nm ([4]; 6 μM): 0.887 | Absorbance of culture medium at 600 nm ([4]; 13 μM): 0.822 | Absorbance of culture medium at 600 nm ([4]; 25 μM): 0.819 | Absorbance of culture medium at 600 nm ([4]; 50 μM): 0.574 | Absorbance of culture medium at 600 nm ([4]; 100 μM): 0.641

CCC(=O)O[C@@H]1[C@@H](C)N(C)C[C@H](C)C[C@@](C)(O)[C@H](O[C@@H]2O[C@H](C)CC(N(C)C)[C@H]2O)[C@@H](C)[C@H](O[C@H]2C[C@@](C)(OC)[C@@H](O)[C@H](C)O2)[C@@H](C)C(=O)O[C@H](CC)[C@@]1(C)O (stereo partly drawn) [Compound E-18]
SARS-CoV-2 viral protein production in CaCo2 cells - effect of each substance at 10 μM (% of untreated) [2]: 49 % of untreated

CCCC(=O)O[C@@H]1C(N(C)C)C[C@@H](C)O[C@H]1O[C@@H]1[C@@H](C)[C@H](O[C@H]2C[C@@](C)(OC)[C@@H](O)[C@H](C)O2)[C@@H](C)C(=O)O[C@H](CC)[C@@](C)(O)[C@H](O)[C@@H](C)N(C)C[C@H](C)C[C@@]1(C)O (stereo partly drawn) [Compound E-19]
SARS-CoV-2 viral protein production in CaCo2 cells - effect of each substance at 10 μM (% of untreated) [2]: 34 % of untreated
